This note sets out measurements from patent publication US12403121B2, “Anticancer rocaglamide derivatives” (priority 2018, dated 2025).

One data set is described as follows: in vivo. More on the design: species or system mice. The settings on record: mouse. The method, then: Mice were administered with a 5 mg/kg dose of Roc by intravenous (IV) or intraperitoneal injection (IP) or by oral gavage (PO). Blood samples were collected before and at multiple indicated time-points after dosing (n=3). Plasma samples were obtained by centrifugation and stored at −80° C. To measure plasma concentrations of Roc, a sensitive liquid chromatography coupled with tandem mass spectrometry detection (LC/MS-MS) method was developed. The reference compounds Roc (NSC326408) and pipernyl rocaglate (NSC784086) were provided by the NCI Developmental Therapeutics Program with pipernyl rocaglate used as the internal standard for quantitation. Plasma samples were processed by taking 100 μl of plasma and adding 300 μl of methanol containing 0.05 μM of internal standard. The samples were vortexed and centrifuged at 10,000×g for 10 min. The supernatant was collected and evaporated to dryness. Dried samples were reconstituted in 100 μl of 1:1 water:acetonitrile and centrifuges at 10,000×g for 3 min, followed by injecting 10 μl into an HPLC. Compounds of interest were separated on a Kinetex EVO C18 column (150×2.1 mm) with a flow rate of 0.25 ml/min. Mobile phase consisted of 80% ammonium formate buffer (1 g/L) and 20% acetonitrile at the start of the run, and a linear gradient to 10% ammonium formate/90% acetonitrile was applied over 14 min. Roc and the internal standard were identified by MS/MS using a Thema) Vantage TSQ run in positive ion mode. The transitions used were m/z 506 to m/z 352 (Roc) and m/z 570 to m/z 450 (internal standard). […] Samples found to be above 2.5 μM of Roc were reanalyzed after dilution with blank plasma. Absolute recoveries of Roc from plasma were to be >98%. AUC estimations were made manually using the trapezoidal method of integration.
To examine the oral bioavailability, PK studies were conducted to compare mice that had been dosed with Roc at 5 mg/kg via the IV, IP, or PO route, followed by measuring Roc concentrations in blood samples collected at various times post dosing. Two separate studies with three mice at each time point for each route of dosing were conducted. […] Areas under the plasma concentration-time curves (AUC0-7h) produced 245 μM min of exposure in the IV route and 142 μM min of exposure in the PO route. The concentrations of Roc appeared to more slowly decline in the plasma over 24 h (T1/2=2.4 hour) with the PO route compared to those dosed by IV route (T1/2=˜1.5 hour).

Data set [1] relates to ST8814-Luc MPNST xenografts. Nature of the data set: Orthotopic ST8814-Luc MPNST cell line-derived xenograft, bioluminescence imaging and IHC. It is filed as in vivo, NSG mice. The settings on record: 4 weeks. The method, then:
All animal work was performed according to the protocols approved by the Institutional Animal Care and Use Committee at Nationwide Children's Hospital. For animal dosing, Roc was formulated in 30% hydroxypropyl-β-cyclodextrin (HPβCD; CTD, Inc.). To generate the orthotopic MPNST CDX model, ST8814-Luc cells were injected into the sciatic nerves of NSG mice (NOD.Cg-Prkdc^scid Il2rg^imlWjl/SzJ; The Jackson Laboratory), followed by bioluminescence imaging (BLI) to monitor tumor growth. Burns and Chang, Methods Mol Biol., 1427:59-72 (2016). Mice bearing established ST8814-Luc tumors, as defined by increasing bioluminescence signals over at least two time points, were randomized into three groups (n=10 mice) and treated with the predetermined maximum tolerated dose (MTD) of Roc at 4 mg/kg by IP or 1.2 mg/kg by oral gavage, or the vehicle HPβCD every other day. Tumor growth was measured weekly by BLI. Following 4 weeks of treatment, tumors were harvested for histological analysis.
Sections from Roc or vehicle-treated MPNST tumors were prepared and stained with hematoxylin and eosin (H&E) or immunostained for p-histone H3(Ser^10) (pH3; ab32107, Abeam) or CC3 (#9664, Cell Signaling) as previously described. Burns et al., Cancer Res., 73:792-803 (2013).
To evaluate the in vivo activity of Roc, the inventors treated NSG mice bearing luciferase-expressing ST8814-Luc tumors implanted in the sciatic nerve with Roc at the predetermined MTD (4 mg/kg by IP or 1.2 mg/kg oral gavage), or IPβCD as the vehicle control every other day.

Another data set deals with osteosarcoma PDX. In words: Osteosarcoma PDX model (NCH-OS-7). The class given is in vivo, NSG mouse. The settings on record: 3 mg/kg IP every other day. From the text: To generate PDX models, the Nationwide Children's Hospital Institutional Review Board approved the Human Subjects Protocol for the acquisition of surgically-removed tumor specimens from patients and informed patient consents were obtained. Shortly after resection, fresh tumor tissues with their histological types confirmed by a specialized pathologist were placed in Dulbecco's-modified Eagle (DME) medium (Invitrogen) and brought to the research laboratory. A piece of tumor fragment was implanted subcutaneously on the dorsal right flank area in an eight-to-ten week-old immunodeficient mouse under anesthesia. Tumors were allowed to grow until established, at which time the established PDX tumors were repeatedly passed from one animal to the next or cryopreserved. For Roc treatment, actively-growing PDXs for a Ewing sarcoma (NCH-EWS-2), an osteosarcoma (NCH—OS-7), and an alveolar rhabdomyosarcoma (NCH-ARMS-2) were excised and cut into 5-mm pieces. Each tumor piece was re-implanted into an NSG mouse and tumor growth was monitored. Once noted, the tumor sizes in the axial plane at its greatest dimension (L) and the orthogonal short dimension (S) were measured twice weekly using a Fowler Ultra-Cal Electronic Caliper. Approximated tumor volumes were calculated using the formula V=(L×S^2)/2. […]

In general, half-life refers to how long it takes for the measured level to halve. Low readings indicate rapid decline, high ones slow decline. A word on the Cmax: it is the peak of the concentration-time curve. What is called bioavailability is dose-corrected exposure relative to a reference, in per cent. Low values mean poor availability, high ones good availability.

Some results are limits rather than exact numbers.

With `COc1ccc([C@@]23Oc4cc(OC)cc(OC)c4[C@]2(O)[C@H](O)[C@H](C(=O)N(C)C)[C@H]3c2ccccc2)cc1` [Roc, rocaglamide], in “in vivo” (iv, 5 mg/kg), the “Area under the plasma concentration-time curve (AUC0-7h)” value amounted to 245 µM·min and the half-life was about 1.5 h. In “in vivo” (po), the “improvement of oral bioavailability over silvestrol” value is recorded as over 25 fold. In addition, in “in vivo” (po, 5 mg/kg), the “Area under the plasma concentration-time curve (AUC0-7h)” value was determined as 142 µM·min, the Cmax was about 800 nM, the T1/2 was 2.4 h and the bioavailability is about 50%. For the same molecule, in data set [1] (1.2 mg/kg PO (oral gavage) every other day, vehicle ~17,000-fold), the “increase of tumor bioluminescence over four weeks” value was about 470 fold. The “reduction in tumor bioluminescence compared to controls” value in data set [1] (1.2 mg/kg oral gavage every other day) is recorded as over 95%. The “reduction in tumor luminescence compared to controls” value in data set [1] (4 mg/kg IP every other day) is reported as over 99%. In addition, the “phospho-histone H3 labeling in tumors vs vehicle” value in data set [1] (IP- or orally-delivered, IHC) is given as “much higher prevalence”. For the same molecule, the “cleaved caspase-3 positive cells in tumors” value in data set [1] (Roc-treated tumors, IHC) was “increased numbers”. Also, in the data set on osteosarcoma PDX, the “reduction of average tumor size compared to vehicle” value is about 80%.
